Laboratory results as given in article PMC6073423, “Dose-Dependent Increase in Unconjugated Cinnamic Acid Concentration in Plasma Following Acute Consumption of Polyphenol Rich Curry in the Polyspice Study” (Nutrients, 2018).
Where two headings read alike, the source gives them in different places.

Legend:
[1] = Plasma nutrikinetics of unconjugated phenolic/aromatic acids after curry test meals (LC-MS/MS, non-compartmental); settings: for AUC(0-t) / Cmax: male, human; for plasma concentration: all three doses
Source text: The detailed methods for this Polyspice study have been described elsewhere. In brief, this was a three-way randomized, controlled, crossover, acute feeding trial in healthy Chinese males (age 23.7 ± 2.30 y, BMI 23.0 ± 2.31 kg/m^2). Three days prior to the main test day, each volunteer avoided vigorous physical activity and adopted a low polyphenol diet. To help adhere to a ‘low polyphenol diet’ in this run-in period, volunteers were provided with a list of polyphenol rich foods to avoid, which consisted of some fruits and fruit juices, spices and condiments, olive oil, certain vegetables, whole grain cereals, cocoa products, tea (including Green tea), coffee, red wine etc. […] On the main test day, the volunteers arrived at the study center in the morning after an overnight fasting period of a minimum of 10 h. On each of 3 test sessions, the volunteers consumed in random order 1 of 3 test meals: Dose 0 Control (D0C), Dose 1 Curry (D1C) and Dose 2 Curry (D2C). D0C, D1C, and D2C contained 0 g, 6 g, and 12 g mixed spices respectively. The mixed spices were prepared by thoroughly mixing dried powders of 7 different spices consisting of turmeric (Everest Spices, Mumbai, India), coriander seeds (Everest Spices, Mumbai, India), cumin seeds (Everest Spices, Mumbai, India), dried Indian gooseberry (‘amla’, Emblica officinalis, Ramdev Spices, Ahmedabad, India), cayenne pepper (Robertson’s, Durban, South Africa), cinnamon (McCormick’s, Baltimore, MD, USA), and clove (Robertson’s, South Africa) in the ratio of 8:4:4:4:2:1:1 respectively. The ‘base vegetables’ used in the curry recipes consisted of tomatoes, onions, ginger, and garlic in the ratio of 5:2:1:1, with D0C, D1C and D2C containing 0 g, 90 g, and 180 g base vegetables respectively. […] The 3 test meals were matched for total vegetable content by including 130 g peeled eggplant (Solanum melongena) and 50 g tomatoes to D0C and 90 g peeled eggplant to D1C. Plain white rice was consumed along with each test meal and the composition of all 3 test meals were isocaloric and macronutrients matched. A standardized lunch was served after the 3 h postprandial blood draw time point, consisting of a made-to-order chicken lasagna (TopChoice Food Industries (S) Pte Ltd., Singapore), which specifically excluded polyphenol-rich ingredients such as black pepper, herbs, spices, onion, garlic or ginger from the product’s original recipe. There was a minimum of 1-week washout period between each session.
The plasma sample was centrifuged at 1500 g for 10 min at 4 °C within 45 min of collection. Aliquots were stored at −80 °C until analysis.
The panel of phenolic/aromatic acids chosen for analyses were based on the predicted metabolic fate of polyphenols contained within the ingredients used in our test meals, as described above. […] Ultra-pure water from Adrona (Rīga, Latvija) was used. Unless otherwise stated, all chemicals and reagents were obtained from Sigma-Aldrich (St. Louis, MO, USA).
Stock solutions of 10 mM of each analyte were prepared in acetonitrile. Baseline (0 h) plasma was pooled from all participants and used as a matrix in equal volume for each calibration standard. […] All standard solutions were freshly prepared and kept in −20 °C prior to use.
Protein precipitation was undertaken using 400 μL acetonitrile containing 1 µM of BA-d5 internal standard was added to 100 μL of plasma, calibration, quality control or blank samples. The sample was centrifuged at 16,000 g for 15 min at 4 °C. 400 μL of the supernatant was recovered and evaporated under a nitrogen flow. Finally, extracts were reconstituted with 80 μL of 90% mobile phase A and 10% mobile phase B.

[2] = Compartmental nutrikinetic modeling of the CNA plasma concentration-time profile (one-compartment, first-order elimination); format: in vivo; settings: male, human, oral; for AUC: read-out: AUC (one-compartment model); for Cmax: read-out: Cmax (one-compartment model); for k el: read-out: Ke, elimination rate constant (converted)
Description: Compartmental parameter estimates for CNA were determined after fitting of concentration data to several compartmental models on Phoenix WinNonlin (Table S3). The Gauss-Newton algorithm was applied and the final model selection was based on goodness-of-fit comparisons, examination of the residual plots, correlation of the observed and predicted values, and Akaike information criterion. 1/Y^2 model yielded the best fit amongst the various weighting schemes used (1/Y, 1/Y^2, and actual). The final nutrikinetic curve best fit into a one-compartment, first-order elimination, as described by:(1) C(T)=DKa/V (Ka−Ke) [e^−KeT−e^−KaT] where C is the plasma concentration, T is time, Ka is the first-order absorption rate, Ke is the first-order elimination rate constant, D is dose, and V is the apparent volume of distribution. Secondary parameters determined from the model included the Cmax, Tmax, AUC0–7 h as well as the terminal half-life.

[3] = cited from earlier work
[4] = parameters: method as in PMID 23604435; settings: cited from earlier work
[5] = plasma, oral, 12 g mixed spices
[6] = 0 g mixed spices, D0C, Figure 2C
[7] = 6 g mixed spices, D1C, Figure 2C
[8] = 12 g mixed spices, D2C, Figure 2C

| SMILES | AUC(0-t) ([1]; plasma, oral, 0 g mixed spices) [µM·h] | Cmax ([1]; plasma, oral, 0 g mixed spices) [nM] | AUC(0-t) ([1]; plasma, oral, 6 g mixed spices) [µM·h] | Cmax ([1]; plasma, oral, 6 g mixed spices) [nM] | AUC(0-t) [1, 5] [µM·h] | Cmax [1, 5] [nM] | other results |
| --- | --- | --- | --- | --- | --- | --- | --- |
| O=C(O)CCc1cccc(O)c1 [3-(3-hydroxyphenyl)-propanoic acid] | 0.182 ± 0.126 | 58.9 ± 39.1 | 0.283 ± 0.388 | 83.3 ± 79.5 | 0.226 ± 0.177 | 72.5 ± 48.6 | – |
| O=C(O)Cc1ccccc1 [Phenylacetic acid (PAA), phenylacetic acid] | – | – | – | – | – | – | AUC(0-t) ([1]; in vivo, 0 g mixed spices): 1.74 ± 1.24 µM·h; Cmax ([1]; in vivo, 0 g mixed spices): 433 ± 287 nM; AUC(0-t) ([1]; in vivo, 6 g mixed spices): 4.44 ± 2.97 µM·h; Cmax ([1]; in vivo, 6 g mixed spices): 1020 ± 826 nM; AUC(0-t) ([1]; in vivo, 12 g mixed spices): 4.13 ± 2.95 µM·h; Cmax ([1]; in vivo, 12 g mixed spices): 1000 ± 666 nM |
| O=C(O)c1cccc(O)c1 [3-Hydoxybenzoic acid (3OH-BA), 3-hydroxybenzoic acid] | – | – | – | – | – | – | plasma concentration [1]: below detection limits |
| O=C(O)c1ccccc1 [Benzoic acid (BA), benzoic acid] | – | – | – | – | – | – | AUC(0-t) ([1]; in vivo, 0 g mixed spices): 0.348 ± 0.0868 µM·h; Cmax ([1]; in vivo, 0 g mixed spices): 114 ± 36.7 nM; AUC(0-t) ([1]; in vivo, 6 g mixed spices): 0.347 ± 0.107 µM·h; Cmax ([1]; in vivo, 6 g mixed spices): 113 ± 33.6 nM; AUC(0-t) ([1]; in vivo, 12 g mixed spices): 0.355 ± 0.123 µM·h; Cmax ([1]; in vivo, 12 g mixed spices): 109 ± 34.6 nM |
| O=C(O)Cc1ccc(O)cc1 [4-Hydroxyphenylacetic acid (4OH-PAA), 4-hydroxyphenylacetic acid] | 2.07 ± 1.45 | 566 ± 322 | 2.38 ± 1.07 | 667 ± 305 | 2.17 ± 1.07 | 633 ± 285 | – |
| O=C(O)c1ccc(O)cc1 [4-Hydroxybenzoic acid (4OH-BA), 4-hydroxybenzoic acid] | 0.036 ± 0.0233 | 13.7 ± 9.9 | 0.0542 ± 0.0346 | 18.3 ± 12.4 | 0.114 ± 0.207 | 41.5 ± 101 | – |
| O=C(O)CCc1ccc(O)cc1 [3-(4-hydroxyphenyl)-propanoic acid] | 0.126 ± 0.115 | 31.4 ± 25 | 0.178 ± 0.12 | 48.6 ± 36.6 | 0.261 ± 0.132 | 81.7 ± 102 | – |
| O=C(O)CCc1ccccc1 [3-Phenylpropanoate acid (PPA), 3-phenylpropanoic acid] | 0.831 ± 0.784 | 279 ± 322 | 2.39 ± 4.37 | 731 ± 1220 | 1.86 ± 3.43 | 554 ± 985 | – |
| O=C(O)CNC(=O)c1ccc(O)cc1 [4-Hydroxyhippuric acid (4OH-HA), 4-hydroxyhippuric acid] | – | – | – | – | – | – | plasma concentration [1]: below detection limits |
| O=C(O)/C=C/c1ccccc1 [Cinnamic acid (CNA), cinnamic acid] | 0.0084 ± 0.0034 | 2.4 ± 0.7 | 0.376 ± 0.105 | 164 ± 47.7 | 0.876 ± 0.292 | 342 ± 83 | time of plasma peak post consumption ([1]; D1C and D2C): approximately 1 h; time of secondary peak in plasma ([1]; D1C and D2C periods, Figure 2A): around 3 h; AUC [2, 6]: 0.0254 µM·h; Cmax [2, 6]: 2.73 nM; k el [2, 6]: 8.06e-05 s⁻¹; half-life ([2]; 0 g mixed spices, D0C, Figure 2C, read-out: T0.5, half-life (converted)): 142 min; Tmax ([2]; 0 g mixed spices, D0C, Figure 2C, read-out: Tmax (one-compartment model)): 205 min; AUC [2, 7]: 0.347 µM·h; Cmax [2, 7]: 144 nM; k el [2, 7]: 0.000297 s⁻¹; half-life ([2]; 6 g mixed spices, D1C, Figure 2C, read-out: T0.5, half-life (converted)): 39 min; Tmax ([2]; 6 g mixed spices, D1C, Figure 2C, read-out: Tmax (one-compartment model)): 56.4 min; AUC [2, 8]: 0.847 µM·h; Cmax [2, 8]: 323 nM; k el [2, 8]: 0.000289 s⁻¹; half-life ([2]; 12 g mixed spices, D2C, Figure 2C, read-out: T0.5, half-life (converted)): 40.2 min; Tmax ([2]; 12 g mixed spices, D2C, Figure 2C, read-out: Tmax (one-compartment model)): 58.2 min; half-life ([2]; no lag time, 1st order absorption, 1st order elimination, 1-compartment model, assumes elimination is rate-limiting, read-out: average elimination half-life (converted)): 39.6 min; Tmax ([2]; no lag time, 1st order absorption, 1st order elimination, 1-compartment model, read-out: Tmax (average, compartmental model)): 57.6 min; fraction eliminated via oxidation (β-oxidation) and subsequent glycine conjugation to form HA [3]: 63% |
| O=C(O)CNC(=O)c1cccc(O)c1 [3-Hydroxyhippuric acid (3OH-HA), 3-hydroxyhippuric acid] | 0.0707 ± 0.0616 | 26.3 ± 22.5 | 0.0801 ± 0.0683 | 27.4 ± 19.1 | 0.0884 ± 0.0854 | 31.3 ± 26.5 | – |
| O=C(O)CNC(=O)c1ccccc1 [Hippuric acid (HA), hippuric acid] | 1.83 ± 1.42 | 1290 ± 706 | 3.22 ± 3.1 | 1370 ± 1170 | 3.06 ± 1.8 | 1080 ± 616 | maximum concentration in plasma ([1]; most abundant phenolic acid in plasma, Table 1): above 1200 nM; half-life [4]: 1320 min |
| O=C(O)Cc1cccc(O)c1 [3-Hydroxyphenylacetic acid (3OH-PAA), 3-hydroxyphenylacetic acid] | 0.101 ± 0.112 | 28.1 ± 26.2 | 0.106 ± 0.07 | 27.2 ± 15.8 | 0.113 ± 0.0904 | 29.1 ± 20.5 | – |
